Test results taken from patent publication US10370343B2, “[6,6] Fused bicyclic HDAC8 inhibitors” (FORMA Therapeutics, Inc., priority 2015, dated 2019).
pIC50: −log10 of the molar value.

Columns and labels:
[1] = target: T1, Recombinant N-terminal GST tag full-length human HDAC8 (Homo sapiens, UniProt Q9BY41); test: HDAC8 probe binding assay, time resolved fluorescence (TRF) format; conditions: compounds grouped by IC50 range (Table 2)
T1 construct: Recombinant N-terminal GST tag full-length human HDAC8; purchased SignalChem H90-30G-1000; host or cells: baculovirus in Sf9 insect cells
T1 sequence (Q9BY41 1-377): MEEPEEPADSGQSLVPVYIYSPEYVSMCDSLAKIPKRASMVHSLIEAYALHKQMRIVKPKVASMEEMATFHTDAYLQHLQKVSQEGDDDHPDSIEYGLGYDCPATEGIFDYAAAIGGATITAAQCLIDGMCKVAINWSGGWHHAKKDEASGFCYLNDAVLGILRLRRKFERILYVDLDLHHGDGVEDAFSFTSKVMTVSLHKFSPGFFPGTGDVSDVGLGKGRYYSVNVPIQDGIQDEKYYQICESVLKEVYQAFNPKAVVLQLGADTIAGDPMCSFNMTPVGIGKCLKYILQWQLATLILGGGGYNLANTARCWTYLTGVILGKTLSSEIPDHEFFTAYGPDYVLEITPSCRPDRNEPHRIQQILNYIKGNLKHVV
Outline: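 IC50 values come from four-parameter logistic fits of percent inhibition, scaled between DMSO (high) and no-enzyme (low) controls. Time-resolved fluorescence (ex 340, em 485/535 nm) was read after 16 h at room temperature. Enzyme was Sf9-expressed full-length human HDAC8 with an N-terminal GST tag, in a probe-binding format.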

[2] = target: T2, Full length human recombinant HDAC8 protein (Homo sapiens, UniProt Q9BY41); test: In vitro histone deacetylase assay: enzymatic HDAC8 electrophoretic mobility shift assay; type: biochemical; conditions: electrophoretic mobility shift assay; enzyme 1 nM; 2 μM fluorescently labeled peptide substrate RHKK(Ac)-NH2; 25° C.; 12 concentrations; read-out: HDAC8 IC50
T2 construct: Full length human recombinant HDAC8 protein was expressed in baculoviral system; made in house
T2 sequence (Q9BY41 1-377): T1 sequence (Q9BY41 1-377)

| SMILES | pIC50 [1] | pIC50 [2] |
| --- | --- | --- |
| O=C(NO)c1ccc2c(c1)N(Cc1c(F)cccc1C(F)(F)F)C(=O)CO2 [Compound I-275, 4-(2-fluoro-6-(trifluoromethyl)benzyl)-N-hydroxy-3-oxo-3,4-dihydro-2H-benzo[b][1,4]oxazine-6-carboxamide] | 7.00 to 7.60 | 7.00 to 7.60 |
| COc1ccc(CN2C(=O)COc3ccc(C(=O)NO)cc32)c(Cl)c1 [Compound I-242, 4-(2-chloro-4-methoxybenzyl)-N-hydroxy-3-oxo-3,4-dihydro-2H-benzo[b][1,4]oxazine-6-carboxamide] | ≥ 7.60 | > 7.60 |
| Cc1ccc(CN2C(=O)COc3ccc(C(=O)NO)cc32)cc1 [Compound I-38, N-hydroxy-4-(4-methylbenzyl)-3-oxo-3,4-dihydro-2H-benzo[b][1,4]oxazine-6-carboxamide] | ≥ 7.60 | > 7.60 |
| O=C(NO)c1ccc2c(c1)N(Cc1ccc(Cl)cc1Cl)C(=O)CO2 [Compound I-256, 4-(2,4-dichlorobenzyl)-N-hydroxy-3-oxo-3,4-dihydro-2H-benzo[b][1,4]oxazine-6-carboxamide] | ≥ 7.60 | > 7.60 |

More lines, now with the values ahead:

| pIC50 [1] | pIC50 [2] | SMILES |
| --- | --- | --- |
| ≥ 7.60 | > 7.60 | COc1ccc(CN2C(=O)C(C(C)(C)C)Oc3ccc(C(=O)NO)cc32)cc1 (stereo not drawn) [Compound I-103, 2-(tert-butyl)-N-hydroxy-4-(4-methoxybenzyl)-3-oxo-3,4-dihydro-2H-benzo[b][1,4]oxazine-6-carboxamide] |
| ≥ 7.60 | > 7.60 | O=C(NO)c1ccc2c(c1)N(Cc1ccc(-c3ncco3)cc1)C(=O)CO2 [Compound I-221, N-hydroxy-4-(4-(oxazol-2-yl)benzyl)-3-oxo-3,4-dihydro-2H-benzo[b][1,4]oxazine-6-carboxamide] |
| ≥ 7.60 | > 7.60 | O=C(NO)c1ccc2c(c1)N(Cc1ccc(SC(F)(F)F)cc1)C(=O)CO2 [Compound I-264, N-hydroxy-3-oxo-4-(4-((trifluoromethyl)thio)benzyl)-3,4-dihydro-2H-benzo[b][1,4]oxazine-6-carboxamide] |
| ≥ 7.60 | > 7.60 | O=C(NO)c1ccc2c(c1)N(Cc1cccc(Cl)c1)C(=O)CO2 [Compound I-143, 4-(3-chlorobenzyl)-N-hydroxy-3-oxo-3,4-dihydro-2H-benzo[b][1,4]oxazine-6-carboxamide] |
| ≥ 7.60 | > 7.60 | COc1ccc(CN2C(=O)C(c3ccccc3)Oc3ccc(C(=O)NO)cc32)cc1 (stereo not drawn) [Compound I-101, N-hydroxy-4-(4-methoxybenzyl)-3-oxo-2-phenyl-3,4-dihydro-2H-benzo[b][1,4]oxazine-6-carboxamide] |
